Among the data in patent EP2242752B1, “[…] IMIDAZOLES AS HEPATITIS C VIRUS INHIBITORS” (Bristol-Myers Squibb Company, priority 2008, dated 2009) are EC50 values, retold here.

For the test, the system named is HCV 1b genotype. In words: HCV Replicon assay (HCV 16-377-neo replicon cells). The following applies: Hepatitis C virus; HCV 1b genotype replicon cells; read-out: EC50 ranges against HCV 1b. Type of test: cell-based. The procedure:
An HCV Replion assay was utilized in the present disclosure, and was prepared, conducted and validated as described in commonly owned PCT/US2006/022197 and in O'Boyle et. al. Antimicrob Agents Chemother. 2005 Apr;49(4): 1346-53.
HCV 16-377-neo replicon cells were used to test the currently described compound series as well as cells resistant to compound A due to a Y2065H mutation in NS5A (described in application PCT/US2006/022197). The compounds tested were determined to have more than 10-fold less inhibitory activity on cells resistant to compound A than wild-type cells indicating a related mechanism of action between the two compound series. Thus, the compounds of the present disclosure can be effective to inhibit the function of the HCV NS5A protein and are understood to be as effective in combinations as previously described in application PCT/US2006/022197 and commonly owned WO/O4014852. Further, the compounds of the present disclosure can be effective against the HCV 1b genotype. It should also be understood that the compounds of the present disclosure can inhibit multiple genotypes of HCV. […] In one embodiment compounds of the present disclosure are active against the 1a, 1b, 2a, 2b, 3a, 4a, and 5a genotypes.
On the technique in general: In antiviral work, replicon cells carry a viral genome segment that copies itself.
As to `COC(=O)N[C@H](C(=O)N1CCC[C@H]1c1nc(-c2ccc(-c3ccc(-c4[nH]c([C@@H]5CCCN5C(=O)[C@@H](NC(=O)OC)C(C)C)nc4CC(OC)OC)cc3)cc2)c[nH]1)C(C)C` [Example J14a.1, methyl ((1S)-1-(((2S)-2-(4-(2,2-dimethoxyethyl)-5-(4'-(2-((2S)-1-((2S)-2-((methoxycarbonyl)amino)-3-methylbutanoyl)-2-pyrrolidinyl)-1H-imidazol-4-yl)-4-biphenylyl)-1H-imidazol-2-yl)-1-pyrrolidinyl)carbonyl)-2-methylpropyl)carba mate], the half-maximal effective concentration (EC50) (as a rule, the midpoint of the concentration-response curve) was 0.001 to 0.999 nM. Turning to `COC(=O)Cc1[nH]c([C@@H]2CCCN2C(=O)[C@@H](NC(=O)OC)[C@@H](C)OC)nc1-c1ccc(-c2ccc(-c3c[nH]c([C@@H]4CCCN4C(=O)[C@@H](NC(=O)OC)[C@@H](C)OC)n3)cc2)cc1` [Example J14b, methyl (2-((2S)-1-(N-(methoxycarbonyl)-O-methyl-L-threonyl)-2-pyrrolidinyl)-4-(4'-(2-((2S)-1-(N-(methoxycarbonyl)-O-methyl-L-threonyl)-2-pyrrolidinyl)-1H-imidazol-4-yl)4-biphenylyl)-1H-imidazol-5-yl)acetate], the 50% effective concentration (EC50) fell in the range of 0.001 to 0.999 nM. Turning to `COC(=O)Cc1[nH]c([C@@H]2CCCN2C(=O)[C@@H](NC(=O)OC)C(C)C)nc1-c1ccc(-c2ccc(-c3c[nH]c([C@@H]4CCCN4C(=O)[C@@H](NC(=O)OC)C(C)C)n3)cc2)cc1` [Example J14b.1, methyl (2-((2S)-1-(N-(methoxycarbonyl)-L-valyl)-2-pyrrolidinyl)-4-(4'-(2-((2S)-1-(N-(methoxycarbonyl)-L-valyl)-2-pyrrolidinyl)-1H-imidazol-4-yl)-4-biphenylyl)-1H-imidazol-5-yl)acetate], the concentration for a half-maximal effect (EC50) was 0.001 to 0.999 nM. For the compound `CCCc1nc([C@@H]2CCCN2C(=O)[C@H](C)NC(=O)OC)[nH]c1-c1ccc(-c2ccc(-c3c[nH]c([C@@H]4CCCN4C(=O)[C@H](C)NC(=O)OC)n3)cc2)cc1` [Example J14c, methyl ((1S)-2-((2S)-2-(4-(4'-(2-((2S)-1-(N-(methoxycarbonyl)-L-alanyl)-2-pyrrolidinyl)-4-propyl-1H-imidazol-5-yl)-4-biphenylyl)-1H-imidazol-2-yl)-1-pyrrolidinyl)-1-methyl-2-oxoethyl)carbamate], the EC50 was in the range of 0.001 to 0.999 nM. For `CCCc1[nH]c([C@@H]2CCCN2C(=O)[C@@H](c2ccccc2)N(CC)CC)nc1-c1ccc(-c2ccc(-c3c[nH]c([C@@H]4CCCN4C(=O)[C@@H](c4ccccc4)N(CC)CC)n3)cc2)cc1` [Example J14c.1, (1R)-2-((2S)-2-(4-(4'-(2-((2S)-1-((2R)-2-(diethylamino)-2-phenylacetyl)-2-pyrrolidinyl)-1H-imidazol-4-yl)-4-biphenylyl)-5-propyl-1H-imidazol-2-yl)-1-pyrrolidinyl)-N,N-diethyl-2-oxo-1-phenylethanamine], the concentration for a half-maximal effect (EC50) fell in the range of 0.001 to 0.999 nM.

On to `CCCc1[nH]c([C@@H]2CCCN2C(=O)[C@@H](NC(=O)OC)C(C)C)nc1-c1ccc(-c2ccc(-c3c[nH]c([C@@H]4CCCN4C(=O)[C@@H](NC(=O)OC)C(C)C)n3)cc2)cc1` [Example J14c.2, methyl ((1S)-1-(((2S)-2-(4-(4'-(2-((2S)-1-((2S)-2-((methoxycarbonyl)amino)-3-methylbutanoyl)-2-pyrrolidinyl)-1H-imidazol-4-yl)-4-biphenylyl)-5-propyl-1H-imidazol-2-yl)-1-pyrrolidinyl)carbonyl)-2-methylpropyl)carba mate], for which the EC50 fell in the range of 0.001 to 0.999 nM. Turning to `COC(=O)N[C@H](C(=O)N1CC(F)(F)C[C@H]1c1nc(-c2ccc(-c3ccc(-c4c[nH]c([C@@H]5CCCN5C(=O)[C@@H](NC(=O)OC)C(C)C)n4)c(F)c3)cc2)c[nH]1)C(C)C` [Example J14e, methyl ((1S)-1-(((2S)-4,4-difluoro-2-(4-(3'-fluoro-4'-(2-((2S)-1-((2S)-2-((methoxycarbonyl)amino)-3-methylbutanoyl)-2-pyrrolidinyl)-1H-imidazol-4-yl)-4-biphenylyl)-1H-imidazol-2-yl)-1-pyrrolidinyl)carbonyl)-2-methylpropyl)carba mate], the EC50 fell in the range of 0.001 to 0.999 nM.

As for `CCN(CC)[C@@H](C(=O)N1CC(F)(F)C[C@H]1c1nc(-c2ccc(-c3ccc(-c4c[nH]c([C@@H]5CCCN5C(=O)[C@@H](c5ccccc5)N(CC)CC)n4)c(F)c3)cc2)c[nH]1)c1ccccc1` [Example J14e.1, (1R)-2-((2S)-2-(4-(4'-(2-((2S)-1-((2R)-2-(diethylamino)-2-phenylacetyl)-4,4-difluoro-2-pyrrolidinyl)-1H-imidazol-4-yl)-3-fluoro-4-biphenylyl)-1H-imidazol-2-yl)-1-pyrrolidinyl)-N,N-diethyl-2-oxo-1-phenylethanamine], the concentration giving a half-maximal response (EC50) lay within 0.001 to 0.999 nM. As to `COC(=O)N[C@H](C(=O)N1CCC[C@H]1c1nc(-c2ccc(-c3ccc(-c4[nH]c([C@@H]5CCCN5C(=O)[C@@H](NC(=O)OC)C(C)C)nc4CO)cc3)cc2)c[nH]1)C(C)C` [Example J14f, methyl ((1S)-1-(((2S)-2-(4-(hydroxymethyl)-5-(4'-(2-((2S)-1-((2S)-2-((methoxycarbonyl)amino)-3-methylbutanoyl)-2-pyrrolidinyl)-1H-imidazol-4-yl)-4-biphenylyl)-1H-imidazol-2-yl)-1-pyrrolidinyl)carbonyl)-2-methylpropyl)carba mate], the EC50 fell in the range of 0.001 to 0.999 nM. Regarding `COC(=O)N[C@@H](C)C(=O)N1CCC[C@H]1c1nc(-c2ccc(-c3ccc(-c4[nH]c([C@@H]5CCCN5C(=O)[C@H](C)NC(=O)OC)nc4CO)cc3)cc2)c[nH]1` [Example J14f.1, methyl ((1S)-2-((2S)-2-(4-(4'-(4-(hydroxymethyl)-2-((2S)-1-(N-(methoxycarbonyl)-L-alanyl)-2-pyrrolidinyl)-1H-imidazol-5-yl)-4-biphenylyl)-1H-imidazol-2-yl)-1-pyrrolidinyl)-1-methyl-2-oxoethyl)carbamate], the EC50 is 1 to 99 nM. As for `COC(=O)N[C@@H](C)C(=O)N1[C@@H]2C[C@@H]2C[C@H]1c1ncc(-c2ccc(-c3ccc(-c4cnc([C@@H]5C[C@H]6C[C@H]6N5C(=O)[C@H](C)NC(=O)OC)[nH]4)cc3)cc2)[nH]1` [Example M132, methyl ((1S)-2-((1R,3S,5R)-3-(4-(4'-(2-((1R,3S,SR)-2-(N(methoxycarbonyl)-L-alanyl)-2-azabicyclo[3.1.0]hex-3-yl)-1H-imidazol-4-yl)-4-biphenyl)-1H-imidazol-2-yl)-2-azabicyclo[3.1.0]hex-2-yl)-1-methyl-2-oxoethyl)carbamate], the half-maximal effective concentration (EC50) lay within 0.001 to 0.999 nM. Regarding `CC[C@H](NC(=O)OC)C(=O)N1[C@@H]2C[C@@H]2C[C@H]1c1nc(-c2ccc(-c3ccc(-c4c[nH]c([C@@H]5C[C@H]6C[C@H]6N5C(=O)[C@H](CC)NC(=O)OC)n4)cc3)cc2)c[nH]1` [Example M133, dimethyl (4,4'-biphenyldiylbis(1H-imidazole-4,2-diyl(1R,3S,5R)-2-azabicyclo[3.1.0]hexane-3,2-diyl((2S)-1-oxo-1,2-butanediyl)))biscarbamate], the EC50 fell in the range of 0.001 to 0.999 nM. `COC(=O)N[C@H](C(=O)N1[C@@H]2C[C@@H]2C[C@H]1c1nc(-c2ccc(-c3ccc(-c4c[nH]c([C@@H]5C[C@H]6C[C@H]6N5C(=O)[C@@H](NC(=O)OC)C5CC5)n4)cc3)cc2)c[nH]1)C1CC1` [Example M135, dimethyl (4,4'-biphenyldiylbis(1H-imidazole-4,2-diyl(1R,3S,5R)-2-azabicyclo[3.1.0]hexane-3,2-diyl((1S)-1-cyclopropyl-2-oxo-2,1-ethanediyl)))biscarbamate]: the half-maximal effective concentration (EC50) fell in the range of 0.001 to 0.999 nM.
